What was measured:
TSPO = details: read-out: K i (TSPO affinity); cited from earlier work
[1] = In vivo PET/CT imaging, time-activity curves; design: species or system Sprague Dawley rats
Procedure: Rats were anesthetized with isoflurane/oxygen gas and injected intravenously with [^18F]F-DPA (31.4 ± 2.1 MBq, n = 4 SA at the time of injection = 4.1 ± 0.4 GBq/μmol) for scanning by an Inveon multimodality PET/CT tomograph (Siemens Medical Solutions, Knoxville, TN, USA). In order to prevent eye dryness, a few drops of Oftagel (25 mg/g; Santen, Tampere, Finland) were applied to the eyes of the animals. The scanner has a 12.7 cm axial field of view (FOV) and 10 cm transaxial FOV generating images from 159 transaxial slices. The spatial resolution of the scanner is 1.4 mm according to the manufacturer’s specifications. The animals were scanned for 10 min with computed tomography (CT) for attenuation correction and anatomical reference, and immediately after that, the radiotracer was injected for a 60-min dynamic PET scan. Frames were taken at the following intervals: 30 × 10, 15 × 60, 4 × 300, and 2 × 600 s. Volume of interests (VOIs) were drawn over the whole brain, heart, lung, liver, and kidneys using Inveon Research Workplace Image Analysis software (Siemens Medical Solutions). From the VOIs, time–activity curves (TACs) were obtained and the uptake of [^18F]F-DPA was expressed as percentage of injected dose per milliliter of tissue (%inj. dose/ml).

CBR = details: read-out: K i CBR (selectivity); cited from earlier work
[2] = Plasma protein binding (ultrafiltration of plasma after tracer injection); type: in vivo, Sprague Dawley rats; details: 15 min after injection, 30 kDa ultrafiltration, n = 3
Procedure: After 15 min, the animals were sacrificed and the blood was collected into Li-heparin tubes and centrifuged (3000×g, 10 min). A 10-μl aliquot of the plasma was spotted onto a TLC plate; following this, the remaining plasma was filtered by ultrafiltration using Microsep 30K Omega (Pall Life Sciences, Mexico) with a cut-off of 30 kDa. A 10-μl aliquot of the resulting supernatant was also spotted onto the TLC plate. The plates were exposed onto an imaging plate (Fuji BAS Imaging Plate TR2025, Fuji Photo Film Co., Ltd., Tokyo, Japan) for approximately two half-lives of fluorine-18 (3.5 to 4 h). After the exposure, the imaging plates were scanned using a BAS-5000 reader (Fuji, Japan) with a resolution of 50 μm and the saved images were analyzed using TINA software (version 2.10 g, Raytest, Isotopenmessgeräte, GmbH, Straubenhardt, Germany).

[3] = RadioTLC analyses of radiometabolites in plasma and brain homogenates; type: in vivo, Sprague Dawley rats; details: for Unchanged radiotracer, share of radioactivity in the brain: brain homogenate
Procedure: The blood samples were taken into Li-heparin tubes and centrifuged (3000×g, 10 min). The plasma was transferred to an Eppendorf tube and the plasma proteins were precipitated by addition of 1.5 parts of MeOH by volume. Following a further centrifugation (12,000×g, 4 min), 20 μl of the supernatant was spotted onto an aluminum-backed silica gel 60/Kieselguhr F254 TLC plate (EMD Millipore 1.05567.0001, Merck Millipore, Darmstadt, Germany).
Brain samples from the cortex were homogenized with approximately 200 μl of 1:1 v/v of MeOH and water; the mixture was transferred to an Eppendorf tube and centrifuged (12,000×g, 4 min). An aliquot (20 μl) of the supernatant was spotted onto the TLC plate.
The TLC plates were developed with a mixture of dichloromethane and methanol (9:1, v/v) for a distance of 6 cm. Following this, the plates were exposed onto an imaging plate (Fuji BAS Imaging Plate TR2025, Fuji Photo Film Co., Ltd., Tokyo, Japan) for approximately two half-lives of fluorine-18 (3.5 to 4 h). After the exposure, the imaging plates were scanned using a BAS-5000 reader (Fuji, Japan) with a resolution of 50 μm and the saved images were analyzed using TINA software (version 2.10 g, Raytest, Isotopenmessgeräte, GmbH, Straubenhardt, Germany).

Excretion pathway ([1]; in vivo TACs, high F-18 radioactivity in the intestine): excreted via the hepatobiliary pathway | Time after injection at which concentration equilibrium is reached in the brain ([1]; whole brain TAC, i.v. injection, 60-min dynamic PET): 20 to 30 min | Fraction of radioactivity unbound to the plasma proteins [2]: 6.6 ± 3.1% | Unchanged radiotracer, share of radioactivity in the brain ([3]; 20–30 min after injection): greater than 95% | Unchanged radiotracer, share of radioactivity in the brain ([3]; 90 min after injection, n = 3): 93.5 ± 2.8% | Unchanged radiotracer, share of radioactivity in the plasma ([3]; plasma, 90 min after injection, n = 3): 28.3 ± 6.4%
Compound: CCN(CC)C(=O)Cc1c(-c2ccc([18F])cc2)nn2c(C)cc(C)nc12 [[^18F]F-DPA]
Ki (TSPO): 1.7 nM | Ki (CBR): > 1000 nM
